Assays:
[1] = tested on: hematopoietic stem and progenitor cells in bone marrow; assay: CBLB612 dose dependence of HSC number in mouse bone marrow (Example 6); assay type: in vivo, C57Bl/6NHsd mice; settings: average, regimen per group b224: AMD3100 5 mg/kg SC 1 h before euthanasia, G-CSF four daily 0.1 mg/kg SC, 612 1.2 mg/kg SC 72 h
Experimental: (§1) The doses were calculated as intended dose/kg of average weight. The adjustment of a dose was accomplished by adjusting the concentration of an article for injection while keeping the injection volume constant.
(§2) According to Table 9, all groups received a single subcutaneous (SC) injection of 5 mg/kg of AMD3100 one hour before euthanasia. Control group 1 was injected with 5 mg/kg of AMD3100 only. Control group 2 was treated with four daily 0.1 mg/kg SC injections of G-CSF and on the fifth day the mice were injected with AMD3100. Control group 8 consisted of ICR mice and received the same treatment as Control group 2. Study groups 3, 4, 5, and 6 received a single SC injection of CBLB612 at 1.2; 0.4; 0.13; and 0.04 mg/kg doses, respectively, at 72 hours before blood collection. Group 7 received a single SC injection of 1.2 mg/kg CBLB612 at 24 hours before blood collection. Study group 9 was treated with four daily SC injections of 0.1 mg/kg G-CSF, a single SC injection of 1.2 mg/kg CBLB612 at 72 hours before blood collection, and a single SC injection of 5 mg/kg AMD3100 one hour before euthanasia at the fifth day after the first G-CSF injection.

[2] = tested on: hematopoietic stem and progenitor cells in peripheral blood; assay: Kinetics of HSC mobilization after CBLB612, peripheral blood of C57Bl mice (Example 7); assay type: in vivo
Experimental: (§3) The following mobilization of HSC and progenitor cells from the bone marrow to peripheral blood after CBLB612 injection. […] The doses were calculated as intended dose/kg of average weight. The adjustment of a dose was accomplished by adjusting the concentration of an article for injection while keeping the injection volume constant. According to Table 13, with the exception of the PBS control group 8, all groups received a 5 mg/kg dose of AMD3100 one hour before euthanasia. Control group 7 received a 6.5 mg/kg does of AMD3100. Negative control group 8 received a single SC injection of 200 μl PBS one hour before blood collection. Study groups 1-6 received single SC injections of CBLB12 at 2 mg/kg at different time points prior to blood collection. Positive control group 9 received four daily SC injections of 0.1 mg/kg G-CSF.

[3] = tested on: hematopoietic stem and progenitor cells in peripheral blood; assay: CBLB612 dose dependence of HSC mobilization, peripheral blood of C57Bl mice (Example 6); assay type: in vivo; settings: C57Bl/6NHsd mice, average, regimen per group b224: AMD3100 5 mg/kg SC 1 h before euthanasia, G-CSF four daily 0.1 mg/kg SC, 612 1.2 mg/kg SC 72 h
Experimental: as §1, §2

[4] = tested on: hematopoietic stem and progenitor cells in bone marrow; assay: Kinetics of HSC number after CBLB612, bone marrow of C57Bl mice (Example 7); assay type: in vivo
Experimental: as §3

[5] = tested on: C57/B6 mice irradiated with 9 Gy; assay: Survival of lethally irradiated mice transfused with PWBC from treated donor mice (Example 2); assay type: in vivo; settings: recipients irradiated 9 Gy, transfused with PWBC from donor mice treated with the compound; 5 mice at Day 0
Experimental: Blood transfused from lipopeptide-treated mice is capable of protecting recipient mice from the effects of radiation. […] To control for the effects of CBLB612, a group of mice was injected daily for four consecutive days with 100 μg/kg G-CSF, or with PBS.
Following the last injection, blood was collected from the treated mice by cardiac puncture and combined for each group (i.e., PBS negative controls, G-CSF positive controls, and CBLB612 experimental). Next, peripheral white blood cells (PWBC) were fractionated, and 200 μL of fractionated PWBC were injected into the tail veins of irradiated recipient mice. The amount of transfused PWBC was equivalent to the amount from one mouse.
Mice from the five test groups (i.e., PBS-, G-CSF-, and CBLB612-treated mouse blood transfusions, no transfusion, and bone marrow injection), previously irradiated with 9 Gy (a lethal dose for C57/B6 mice) for 2 h prior to transfusion, were observed and their survival rate assessed following transfusion.

[6] = AMD3100 5 mg/kg SC 1 h before collection
[7] = AMD3100 + 30%: 6.5 mg/kg SC 1 h before collection

Q: `c1cc(CN2CCCNCCNCCCNCC2)ccc1CN1CCCNCCNCCCNCC1` [AMD3100] was tested. Which “7AAD−/LIN−” value [1] did it give?
A: The value was 2.39 ×10^6.

Q: And the KSL [1]?
A: The KSL was 1.37 ×10^4.

Q: What about the “KSL/CD34+” value [1] of the same molecule?
A: Its value is 1.25 ×10^4.

Q: What about the “KSL/CD34−” value [1] of the same molecule?
A: Its value is 1.24 ×10^3.

Q: And the “LIN−/kit−/sca1+” value [1]?
A: Its value is 15.74 ×10^4.

Q: And the “LIN−/sca1−/kit+” value [1]?
A: The value was 13.26 ×10^4.

Q: And the “total number of cells” value [1]?
A: The value was 4.47 10^7.

Q: And the “7AAD−/LIN− (average number)” value [2, 6]?
A: The value was 421616.

Q: And the “KSL (average number)” value [2, 6]?
A: The value was 360.

Q: What about the “KSL/CD34+ (average number)” value [2, 6] of the same molecule?
A: Its value is 308.

Q: What about the “KSL/CD34− (average number)” value [2, 6] of the same molecule?
A: Its value is 56.

Q: And the “LIN−/kit−/sca1+ (average number)” value [2, 6]?
A: The value was 23142.

Q: What about the “LIN−/sca1−/kit+ (average number)” value [2, 6] of the same molecule?
A: Its value is 1932.

Q: And the “total number of WBC (average)” value [2, 6]?
A: Its value is 962.40 10^4/ml.

Q: And the “7AAD−/LIN− (average number)” value [2, 7]?
A: The value was 302644.

Q: What about the “KSL (average number)” value [2, 7] of the same molecule?
A: Its value is 907.

Q: What about the “KSL/CD34+ (average number)” value [2, 7] of the same molecule?
A: The value was 856.

Q: What about the “KSL/CD34− (average number)” value [2, 7] of the same molecule?
A: Its value is 63.

Q: And the “LIN−/kit−/sca1+ (average number)” value [2, 7]?
A: Its value is 30938.

Q: What about the “LIN−/sca1−/kit+ (average number)” value [2, 7] of the same molecule?
A: The value was 1816.

Q: What about the “total number of WBC (average)” value [2, 7] of the same molecule?
A: Its value is 1111.05 10^4/ml.

Q: And the “7AAD−/LIN−” value [3]?
A: The value was 254725.

Q: And the KSL [3]?
A: Its KSL is 238.

Q: What about the “KSL/CD34+” value [3] of the same molecule?
A: The value was 174.

Q: And the “KSL/CD34−” value [3]?
A: Its value is 72.

Q: And the “LIN−/kit−/sca1+” value [3]?
A: Its value is 40971.

Q: And the “LIN−/sca1−/kit+” value [3]?
A: The value was 1104.

Q: What about the “total number of WBC” value [3] of the same molecule?
A: The value was 629.95 10^4/ml.

Q: What about the “7AAD−/LIN− (average number)” value [4, 6] of the same molecule?
A: The value was 2.44 ×10^6.

Q: What about the “KSL (average number)” value [4, 6] of the same molecule?
A: The value was 17184.

Q: And the “KSL/CD34+ (average number)” value [4, 6]?
A: Its value is 14743.

Q: What about the “KSL/CD34− (average number)” value [4, 6] of the same molecule?
A: The value was 2689.

Q: What about the “LIN−/kit−/sca1+ (average number)” value [4, 6] of the same molecule?
A: The value was 206061.

Q: And the “LIN−/sca1−/kit+ (average number)” value [4, 6]?
A: Its value is 163895.

Q: And the “total number of cells (average)” value [4, 6]?
A: Its value is 4.88 10^7.

Q: What about the “7AAD−/LIN− (average number)” value [4, 7] of the same molecule?
A: The value was 2.26 ×10^6.

Q: What about the “KSL (average number)” value [4, 7] of the same molecule?
A: The value was 41791.

Q: What about the “KSL/CD34+ (average number)” value [4, 7] of the same molecule?
A: Its value is 40873.

Q: And the “KSL/CD34− (average number)” value [4, 7]?
A: Its value is 1084.

Q: What about the “LIN−/kit−/sca1+ (average number)” value [4, 7] of the same molecule?
A: The value was 148328.

Q: What about the “LIN−/sca1−/kit+ (average number)” value [4, 7] of the same molecule?
A: Its value is 281722.

Q: What about the “total number of cells (average)” value [4, 7] of the same molecule?
A: Its value is 3.65 10^7.

B1: G-CSF: granulocyte-colony stimulating factor, a cytokine; positive control (protein, UniProt P09919 31-207, looked up)
Granulocyte …: TPLGPASSLPQSFLLKCLEQVRKIQGDGAALQEKLVSECATYKLCHPEELVLLGHSLGIPWAPLSSCPSQALQLAGCLSQLHSGLFLYQGLLQALEGISPELGPTLDTLQLDVADFATTIWQQMEELGMAPALQPTQGAMPAFASAFQRRAGGVLVASHLQSFLEVSYRVLRHLAQP
Q: Which results are given for B1?
A: Number of Surviving Mice, Day 21 [5]: 5; Number of Surviving Mice, Day 22 [5]: 5; Number of Surviving Mice, Day 23 [5]: 5; Number of Surviving Mice, Day 24 [5]: 5

Reference: patent publication US20140045747A1, “METHODS FOR INCREASING AND MOBILIZING HEMATOPOIETIC STEM CELLS” (Cleveland Biolabs, Inc., priority 2007, published 2014)
